Values after ≈ are worked out from the molar mass of the structure shown. Some results are limits rather than exact numbers.

Data on seven molecules can be found in ChEMBL document CHEMBL4616724, “Topoisomerase Inhibitors Addressing Fluoroquinolone Resistance in Gram-Negative Bacteria” (J Med Chem, 2020).

Data set [1] deals with Pseudomonas aeruginosa. Put plainly: Antibacterial activity against Pseudomonas aeruginosa NB52023 harboring gyrA T83I mutant/ParC S87L mutant by CLSI-based broth microdilution assay. Format: functional. (In broth dilution the organism is exposed to a series of concentrations in liquid medium.)
Data set [2] relates to Klebsiella pneumoniae. Put plainly: Antibacterial activity against wild type Klebsiella pneumoniae ATCC 43816 by CLSI-based broth microdilution assay. Format: functional.
Data set [3] has as its system Pseudomonas aeruginosa. Put plainly: Antibacterial activity against wild type Pseudomonas aeruginosa PAO1 K767 by CLSI-based broth microdilution assay. Format: functional.
A short description of data set [4]: Protein binding in pooled human plasma at 10 uM incubated for 4 hrs under shaking condition by LC-MS/MS analysis. The conditions noted are these: read-out: PPB (converted). Format: ADME, cell-free.
Data set [5] concerns Escherichia coli. In words: Antibacterial activity against Escherichia coli BW25113/JW0451-2 harboring AcrB deletion mutant by CLSI-based broth microdilution assay. The data set is classed as functional.
Data set [6] in a line: Intrinsic clearance in rat liver microsomes at 1 uM in presence of NADPH and measured up to 30 mins by LC-MS/MS analysis. Format: ADME, Microsome. Conditions: read-out: CLH. In general terms: Liver microsomes are vesicles of endoplasmic reticulum, rich in cytochrome P450 enzymes.
Data set [7] concerns Pseudomonas aeruginosa. Put plainly: Antibacterial activity against Pseudomonas aeruginosa K1542/K767 harboring MexB/MexXY deletion mutant by CLSI-based broth microdilution assay. Format: functional.
In data set [8] the target is Voltage-gated inwardly rectifying potassium channel KCNH2 (Homo sapiens, UniProt Q12809). In words: Inhibition of human ERG expressed in CHOK1 cells by QPatch automated patch-clamp assay. Format: cell-based, CHO-K1. For orientation: The patch-clamp technique gives a direct electrical read-out from membranes.
Sequence of Voltage-gated inwardly rectifying potassium channel KCNH2 (Q12809 whole entry): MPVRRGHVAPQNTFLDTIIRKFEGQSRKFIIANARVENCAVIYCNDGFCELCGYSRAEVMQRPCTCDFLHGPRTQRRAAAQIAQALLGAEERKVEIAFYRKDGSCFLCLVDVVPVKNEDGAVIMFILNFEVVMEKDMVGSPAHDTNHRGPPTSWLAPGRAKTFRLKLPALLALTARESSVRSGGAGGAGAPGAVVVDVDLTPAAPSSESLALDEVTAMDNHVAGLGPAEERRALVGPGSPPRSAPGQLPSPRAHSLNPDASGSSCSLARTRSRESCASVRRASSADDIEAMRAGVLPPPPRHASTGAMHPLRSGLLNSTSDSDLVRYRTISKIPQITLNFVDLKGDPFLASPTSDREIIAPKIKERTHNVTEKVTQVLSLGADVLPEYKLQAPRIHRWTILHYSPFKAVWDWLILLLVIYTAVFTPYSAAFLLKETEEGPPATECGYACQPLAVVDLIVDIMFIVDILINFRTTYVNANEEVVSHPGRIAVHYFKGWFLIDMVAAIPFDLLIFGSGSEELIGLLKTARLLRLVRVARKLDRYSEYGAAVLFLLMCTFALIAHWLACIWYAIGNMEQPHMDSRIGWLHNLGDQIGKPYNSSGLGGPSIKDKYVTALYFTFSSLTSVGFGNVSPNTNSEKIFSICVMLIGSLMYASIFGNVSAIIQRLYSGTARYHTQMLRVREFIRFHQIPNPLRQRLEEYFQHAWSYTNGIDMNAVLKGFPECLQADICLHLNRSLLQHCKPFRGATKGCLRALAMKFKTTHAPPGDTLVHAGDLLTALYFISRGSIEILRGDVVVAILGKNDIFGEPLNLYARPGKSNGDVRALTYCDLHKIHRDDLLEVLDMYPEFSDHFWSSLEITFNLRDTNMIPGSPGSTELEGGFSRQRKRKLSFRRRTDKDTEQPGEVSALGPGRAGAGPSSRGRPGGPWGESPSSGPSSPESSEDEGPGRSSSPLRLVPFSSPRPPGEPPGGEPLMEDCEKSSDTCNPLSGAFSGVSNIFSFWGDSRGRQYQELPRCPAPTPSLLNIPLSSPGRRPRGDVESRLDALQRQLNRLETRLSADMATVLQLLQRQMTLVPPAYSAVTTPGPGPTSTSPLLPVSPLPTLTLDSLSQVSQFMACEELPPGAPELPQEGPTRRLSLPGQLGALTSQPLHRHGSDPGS
The nature of data set [9]: Intrinsic clearance in human liver microsomes at 1 uM in presence of NADPH and measured up to 30 mins by LC-MS/MS analysis. The data set is classed as ADME, Microsome. The conditions noted are these: read-out: CLH.
For data set [10], the system named is Escherichia coli. In words: Ratio of MIC for antibacterial activity against wild type Escherichia coli ATCC 25922 at pH 5.8 to MIC for antibacterial activity against wild type Escherichia coli ATCC 25922 at pH 7.4. Format: functional.
Data set [11] deals with Escherichia coli. Put plainly: Antibacterial activity against wild type Escherichia coli ATCC 25922 at pH 7.4 by CLSI-based broth microdilution assay. The data set is classed as functional.
Data set [12] in a line: Protein binding in Sprague-Dawley rat plasma at 10 uM incubated for 4 hrs under shaking condition by LC-MS/MS analysis. Format: ADME, cell-free. The conditions noted are these: read-out: PPB (converted).
A short description of data set [13]: Protein binding in CD1 mouse plasma at 10 uM incubated for 4 hrs under shaking condition by LC-MS/MS analysis. The data set is classed as ADME, cell-free. The conditions noted are these: read-out: PPB (converted).
The nature of data set [14]: Selectivity ratio of MIC for wild type Escherichia coli ATCC 25922 to MIC for Escherichia coli BW25113/JW0451-2 harboring AcrB deletion mutant. The data set is classed as functional.
The test system of data set [15] is Escherichia coli. Put plainly: Antibacterial activity against wild type Escherichia coli ATCC 25922 at pH 5.8 by CLSI-based broth microdilution assay. The data set is classed as functional.
Data set [16] in a line: Solubility of the compound in pH 7 PBS incubated for 24 hrs under gently shaking condition by UPLC/UV/CLND/MS analysis. The conditions noted are these: PBS, pH 7. The data set is classed as physicochemical.
Data set [17] is described as follows: n-Octanol-PBS buffer partition coefficient, log D of the compound at pH 7.4 after overnight incubation by LC/UV/qTOF analysis. The data set is classed as physicochemical.
Data set [18] can be described thus: Efflux ratio of apparent permeability in human Caco2 cells at 10 uM after 2 hrs by LC-MS/MS analysis. The data set is classed as ADME, cell-based. Conditions: Caco-2.
The nature of data set [19]: Dissociation constant, pKa of the compound by UV metric method. The data set is classed as physicochemical.
Data set [20] can be described thus: Selectivity ratio of MIC for Pseudomonas aeruginosa NB52023 harboring gyrA T83I mutant/ParC S87L mutant to MIC for Pseudomonas aeruginosa K1542/K767 harboring MexB/MexXY deletion mutant. The data set is classed as functional.
Data set [21] can be described thus: Inhibition of recombinant full-length C-terminal His6-tagged Escherichia coli DNA topoisomerase 4 subunit ParC/ParE using kinetoplast DNA as substrate preincubated for 30 mins followed by substrate addition and measured after 1 hr in presence of ATP by size exclusion chromatography.
In data set [22] the target is DNA gyrase (Escherichia coli, UniProt P0AES4+P0AES6). In words: Inhibition of recombinant full-length C-terminal His6-tagged Escherichia coli DNA gyrase AB supercoiling activity using relaxed DNA as substrate preincubated for 30 mins followed by substrate addition and measured after 2 hrs in presence of ATP by size exclusion HPLC analysis. The data set is classed as protein-complex assay.

Data set [23] deals with NIH3T3. In words: Phototoxicity against BALB/c mouse 3T3 cells assessed as reduction in cell viability preincubated for 1 hr followed by 5 J/cm2 UVA sunlight irradiation for 50 mins and subsequent replacement of medium and measured after 24 hrs by neutral red uptake assay. Format: cell-based. The conditions noted are these: NIH3T3, light or radiation study.
Data set [24] in a line: Photoirradiation factor, ratio of IC50 for BALB/c mouse 3T3 cells under dark condition to IC50 for BALB/c mouse 3T3 cells under 5 J/cm2 sunlight irradiation by neutral red uptake assay. Format: ADME, cell-based, NIH3T3. Conditions: BALB/c 3T3 cells, read-out: Ratio IC50.
In data set [25] the test system is Escherichia coli. In words: Bacteriostatic activity against Escherichia coli ATCC 25922 infected in mouse model of neutropenic thigh infection assessed as static dose compound administered subcutaneously 2 hrs post infection and measured after 24 hrs by serial dilution method. Format: functional.
Data set [26] is described as follows: Dose normalized AUC in rat at 10 mg/kg, po measured up to 24 hrs by LC-MS/MS analysis. The data set is classed as ADME, organism-based. The conditions noted are these: in vivo.
Data set [27] in a line: in vivo. Conditions: mouse, po, 10 mg/kg.
Data set [28] in a line: Tmax in rat at 10 mg/kg, po measured up to 24 hrs by LC-MS/MS analysis. The data set is classed as ADME, organism-based. Conditions: in vivo.
Data set [29] is described as follows: Dose normalized Cmax in rat at 10 mg/kg, po measured up to 24 hrs by LC-MS/MS analysis. The conditions noted are these: in vivo. The data set is classed as ADME, organism-based.
The nature of data set [30]: Dark toxicity in BALB/c mouse 3T3 cells assessed as reduction in cell viability incubated for 1 hr prior to 50 mins incubation under dark condition followed by replacement of medium and measured after 24 hrs by neutral red uptake assay. The data set is classed as cell-based, NIH3T3. Conditions: BALB/c 3T3 cells.

In the case of `Cc1c(N2CC[C@@H]([C@H](C)N)C2)c(F)cc2c(CN)cc(=O)n(C3CC3)c12`, the MIC (usually the lowest concentration that inhibits growth of the organism) is 2 µg/mL (≈ 5.58 µM) in data set [1]; 4 µg/mL (≈ 11.2 µM) in data set [2]; 2 µg/mL (≈ 5.58 µM) in data set [3]; 0.06 µg/mL (≈ 0.167 µM) in data set [5]; 0.5 µg/mL (≈ 1.39 µM) in data set [7]; 1 µg/mL (≈ 2.79 µM) in [11]. For the same molecule, the minimal inhibitory concentration (MIC) in data set [15] is more than 32 µg/mL. Besides, the fraction unbound at 4 h, 10 µM is 0.83 in data set [4], 0.82 in data set [12] and 0.44 in [13]. The microsomal CLint at 1 µM in data set [6] was less than 7.7 µL/min/mg; in [9], 14 µL/min/mg. In addition, the IC50 (commonly the concentration that gives 50% inhibition) in data set [8] was more than 300 µM. In addition, the Ratio result in data set [10] was “>=64”. Besides, the Selectivity ratio in data set [14] is 16. In [16], the solubility (usually how much of the substance goes into solution per volume) at 24 h is more than 555 µg/mL. Also, in [17], the pH-dependent lipophilicity (logD) (as a rule, the decadic logarithm of the distribution of all forms, ionised or not, between an organic phase and buffer at a given pH) was -0.29. Further, in data set [18], the efflux ratio (as a rule, the permeability from basolateral to apical divided by that in the opposite direction, in the common usage) at 2 h, 10 µM came out at 18.
With `Cc1c(N2CC[C@@H]([C@H](C)N)C2)c(F)cc2c(O)cc(=O)n(C3CC3)c12`, the minimum inhibitory concentration (MIC) in data set [1] was more than 32 µg/mL; in [2] it was more than 32 µg/mL; in data set [3] it was more than 32 µg/mL; in data set [5], 16 µg/mL (≈ 46.3 µM); in data set [7], more than 32 µg/mL; in data set [11], more than 32 µg/mL. The pKa – broadly, the pH at which an ionisable group is half protonated – in [19] came out at 5.7.
In the case of `Cc1c(N2CC[C@@H]([C@H](C)N)C2)c(F)cc2c(C(=O)O)cc(=O)n(C3CC3)c12`, the minimal inhibitory concentration (MIC) in data set [1], in data set [2], in data set [3], in data set [7] and in data set [11] was more than 32 µg/mL in each case. The molecule further yielded a pKa in [19] of 2.2.
`Cc1c(N2CC[C@@H]([C@H](C)N)C2)c(F)cc2cc(C(=O)O)c(=O)n(C3CC3)c12`: the minimum inhibitory concentration (MIC) was found to be 64 µg/mL (≈ 171 µM) in [1], 8 µg/mL (≈ 21.4 µM) in data set [2] and 4 µg/mL (≈ 10.7 µM) in [11]. The Selectivity ratio in data set [20] amounted to 8. The half-inhibitory concentration (IC50) in data set [21] was 4.8 µM; in data set [22] it was 2910 nM.
On to `Cc1c(N2CC[C@H](N)C2)c(F)cc2c(CN)cc(=O)n(C3CC3)c12`, for which the MIC in data set [1] stood at 2 µg/mL (≈ 6.05 µM); in data set [2], 2 µg/mL (≈ 6.05 µM); in data set [3], 4 µg/mL (≈ 12.1 µM); in data set [5], 0.5 µg/mL (≈ 1.51 µM); in [7], 0.5 µg/mL (≈ 1.51 µM); in data set [11], 2 µg/mL (≈ 6.05 µM). Also, the minimal inhibitory concentration (MIC) in [15] is more than 32 µg/mL. The IC50 in [23] was 288 µM. Besides, the selectivity ratio in [24] turned out to be 1.7. The Ratio entry in [10] was “>=32”.
Take `O=C(O)c1cn(C2CC2)c2cc(N3CCNCC3)c(F)cc2c1=O` [CIPROFLOXACIN]: the IC50 in data set [21] was 2.71 µM. Besides, in data set [25], the Activity amounted to 6.4 mg/kg/day. This molecule also showed an AUC/dose in data set [26] of 0.29 µM·h/mg/kg. Moreover, in data set [27], the time to peak (Tmax) (as a rule, the time from dosing to the highest level) at 24 h was 15 min. For the same molecule, the Tmax in data set [28] amounted to 30 min. In addition, the Cmax/dose in [29] came out at 0.14 µM/mg/kg.
For `Cc1c(N2CC3CC3(N)C2)c(F)cc2c(CN)cc(=O)n(C3CC3)c12` (stereo not given), the minimal inhibitory concentration (MIC) in data set [1] was determined as 1 µg/mL (≈ 2.92 µM); in data set [2] it was 0.5 µg/mL (≈ 1.46 µM); in [3] it was 4 µg/mL (≈ 11.7 µM); in [5] it was 0.06 µg/mL (≈ 0.175 µM); in data set [7], 0.5 µg/mL (≈ 1.46 µM); in data set [11] it was 0.25 µg/mL (≈ 0.73 µM). This molecule also displayed an MIC in data set [15] of 32 µg/mL (≈ 93.5 µM). In data set [23], the IC50 amounted to 3.03 µM. For the same molecule, the selectivity ratio in data set [24] came to 104. The IC50 at 110 min in [30] is 316 µM. Also, the Ratio in data set [10] amounted to 128. For the same molecule, the Selectivity ratio in data set [14] came to 4.
